Tested on: human patient with an ectopic ACTH-secreting pancreatic neuroendocrine tumor
Assay: Tolerability in a patient
Assay type: in vivo
Details: week 20, octreotide LAR continued
From the text: Mifepristone was resumed for an additional 12-month extension period. […] The collection of cortisol and ACTH data was less frequent during the extension study.

## CC#C[C@]1(O)CC[C@H]2[C@@H]3CCC4=CC(=O)CCC4=C3[C@@H](c3ccc(N(C)C)cc3)C[C@@]21C [mifepristone, 17-β-hydrox-11-β-(4-dimethyl-aminophenyl)17-α-(1-propynyl)estra-4,9-dien-3-one]
  adverse events for which the drug was briefly stopped: significant fatigue, low appetite, and nausea
